# From ChEMBL document CHEMBL5260832, “Hepatoprotective natural triterpenoids” (Eur J Med Chem, 2018)
# Tests used:
# [1] = system: Hepatocyte; assay: Hepatoprotective activity against D-GaIN-induced toxicity in mouse hepatocyte relative to control; format: functional, cell-based
# [2] = system: Mus musculus; assay: Hepatoprotective activity in mouse model of D-GaIN/LPS-induced liver injury assessed as inhibition of sALT level secretion at 100 mg/kg, po relative to control; format: functional
# [3] = system: Hepatocyte; assay: Hepatoprotective activity against D-GaIN/TNFalpha-induced cell death in mouse hepatocyte at 100 uM; format: functional, cell-based
# [4] = system: Mus musculus; assay: Hepatoprotective activity in mouse model of D-GaIN/LPS-induced liver injury assessed as inhibition of sAST secretion at 100 mg/kg, po relative to control; format: functional
# [5] = Hepatotoxicity in rat assessed as reduction in GPT level at 0.01 mg/mL measured after 48 hrs (reference value: 291 IU/L); format: toxicity; conditions: in vivo
# [6] = system: Hepatocyte; assay: Hepatoprotective activity against D-GaIN/TNFalpha-induced cell death in mouse hepatocytes at 50 uM assessed as inhibition of cell death relative to control; format: functional; set-up: scale not given: the % may be the effect or the level left
# [7] = Hepatoprotective activity against D-GaIN - induced toxicity in rat WB-F344 cells assessed as inhibition of cell growth relative to control; format: functional; set-up: scale not given: the % may be the effect or the level left
# [8] = Hepatoprotective activity against D-Galactosamine-induced toxicity in rat WB-F344 cells assessed as cell survival rate at 10 uM relative to control; format: functional
# [9] = species on record: Mus musculus; assay: Hepatoprotective activity against D-GaIN-induced liver injury mouse model assessed as cell death with increasing cell survival rates at 10 uM relative to control; format: functional
# [10] = system: Rattus norvegicus; assay: Hepatoprotective activity in GaIN-induced rat model of liver injury assessed as reduction in ALT level at 4 mg/kg relative to control; format: functional; set-up: scale not given: the % may be the effect or the level left
# [11] = system: Hepatocyte; assay: Hepatoprotective activity against D-GaIN/TNFalpha -induced cell death in mouse hepatocyte assessed as inhibition at 50 uM relative to control; format: functional; set-up: scale not given: the % may be the effect or the level left
# [12] = Hepatotoxicity in rat assessed as reduction in GPT level at 1.0 mg/mL measured after 48 hrs (reference value: 291 IU/L); format: toxicity; conditions: in vivo
# [13] = system: HepG2; assay: Cytoprotective activity against t-BHP induced cell death in human HepG2 cells assessed as cell survival rate at 10 uM relative to control; format: functional
# [14] = system: Mus musculus; assay: Hepatoprotective activity against D-GaIN/CCl4 induced liver injury mouse model assessed as reduction in GPT level at 1.0 microg/ml, iv relative to control; format: functional; set-up: scale not given: the % may be the effect or the level left; conditions: dose 1 µg/ml
# [15] = system: L02; assay: Protection against D-GalN-induced cell damage in human L02 cells […] assessed as reduction in cell viability […]; format: functional, cell-based
# [16] = system: Hepatocyte; assay: Hepatoprotective activity against CCL4-induced rat hepatocyte toxicity assessed as decrease in GPT level at 3.33 mg/mL preincubated for 30 mins followed by CCL4 addition and measured after 180 mins by colorimetric method; format: functional; conditions: time 210 min, 3.5 h
# [17] = system: Hepatocyte; assay: Hepatoprotective activity against CCL4-induced rat hepatocyte toxicity assessed as decrease in GOT level at 3.33 mg/mL preincubated for 30 mins followed by CCL4 addition and measured after 180 mins by colorimetric method; format: functional; conditions: time 210 min, 3.5 h
# [18] = system: Hepatocyte; assay: Hepatoprotective activity against CCL4-induced rat hepatocyte toxicity assessed as decrease in ALP level at 3.33 mg/mL preincubated for 30 mins followed by CCL4 addition and measured after 180 mins by colorimetric method; format: functional; conditions: time 210 min, 3.5 h
# [19] = system: Mus musculus; assay: Hepatoprotective activity against CCl4-induced liver injury mouse model assessed as reduction in ALT at 20 ug/mL, ip relative to control (reference value: 13.23 IU/L); format: functional; conditions: dose 20 µg/ml
# [20] = system: Mus musculus; assay: Hepatoprotective activity against CCl4-induced liver injury mouse model assessed as increase in SOD level at 20 ug/mL, ip relative to control (reference value: 5.89 IU/L); format: functional; conditions: dose 20 µg/ml
# [21] = system: Mus musculus; assay: Hepatoprotective activity against CCl4-induced liver injury mouse model assessed as reduction in MDA level at 20 ug/mL, ip relative to control (reference value: 9.27 IU/L); format: functional; conditions: dose 20 µg/ml
# [22] = system: Mus musculus; assay: Hepatoprotective activity against CCl4-induced liver injury mouse model assessed as reduction in AST at 20 ug/mL, ip relative to control (reference value: 9.27 IU/L); format: functional; conditions: dose 20 µg/ml
# [23] = system: L02; assay: Protection against D-GalN-induced toxicity in L02 cells […] assessed as reduction in cell growth relative to control; format: functional, Homo sapiens; set-up: scale not given: the % may be the effect or the level left
# [24] = system: L02; assay: Protection against D-GalN-induced toxicity in L02 cells […] assessed as reduction in cell growth at 6.25 microg/ml relative to control; format: functional, Homo sapiens; set-up: scale not given: the % may be the effect or the level left; conditions: dose 6.25 µg/ml
# [25] = system: Huh-7; assay: Hepatoprotective activity against CCL4-induced mouse model in human Huh-7 cells assessed as decrease in ALT level at 100 ug/mL; format: functional; conditions: dose 100 µg/ml
compound,measurement,setting,value
C[C@@H]1CC[C@]2(C(=O)O[C@@H]3O[C@H](CO)[C@@H](O)[C@H](O)[C@H]3O)CC[C@]3(C)C(=CC[C@@H]4[C@@]5(C)C[C@@H](O)[C@H](O)C(C)(C)[C@@H]5CC[C@]43C)[C@@H]2[C@]1(C)O,IC50,[1],35.5 µM
same,inhibition in vivo at 100 mg/kg,[2],71.1%
same,IC50,[3],55.7 µM
same,inhibition in vivo at 100 mg/kg,[4],65.2%
C[C@@]1(CO)CC[C@]2(C(=O)O[C@@H]3O[C@H](CO[C@@H]4O[C@H](CO)[C@@H](O)[C@H](O)[C@H]4O)[C@@H](O)[C@H](O[C@@H]4O[C@H](CO)[C@@H](O)[C@H](O)[C@H]4O)[C@H]3O)CC[C@]3(C)C(=CC[C@@H]4[C@@]5(C)CC[C@H](O[C@@H]6O[C@H](CO)[C@@H](O)[C@H](O)[C@H]6O)[C@@](C)(C(=O)O)[C@@H]5CC[C@]43C)[C@@H]2C1,Activity,[5],253 IU/L
CC1=C(C)[C@H]2C3=CC[C@@H]4[C@@]5(C)C[C@@H](O)[C@H](O)[C@@](C)(CO)[C@@H]5CC[C@@]4(C)[C@]3(C)CC[C@@]2(C(=O)O[C@@H]2O[C@H](CO)[C@@H](O)[C@H](O)[C@H]2O)CC1,Activity,[6],8.3%
same,IC50,[3],33.6 µM
C[C@@H]1CC[C@]2(C(=O)O[C@@H]3O[C@H](CO)[C@@H](O)[C@H](O)[C@H]3O)CC[C@]3(C)C(=CC[C@@H]4[C@@]5(C)C[C@@H](O)[C@@H](O)C(C)(C)[C@@H]5CC[C@]43C)[C@@H]2[C@]1(C)O,IC50,[1],14.1 µM
same,inhibition in vivo at 100 mg/kg,[2],57.2%
same,inhibition in vivo at 100 mg/kg,[4],59.7%
CC1(C)CC[C@]2(C(=O)O[C@@H]3O[C@H](CO)[C@@H](O)[C@H](O)[C@H]3O[C@@H]3OC[C@@H](O)[C@H](O)[C@H]3O)CC[C@]3(C)C(=CC[C@@H]4[C@@]5(C)C[C@@H](O)[C@@H](O)C(C)(C)[C@@H]5CC[C@]43C)[C@@H]2[C@@H]1O,Activity,[7],68%
same,Activity,[8],68%
CC(=O)O[C@H](C/C=C(/C)C(=O)O)[C@@H](C)[C@H]1CCC2(C)[C@@H]3CC[C@H]4C(C)(C)C(=O)CC[C@@]45C[C@@]35CC[C@]12C (stereo partly drawn),Activity,[9],30.8%
COC(=O)[C@]12CC[C@@H](C)[C@H](C)[C@H]1C1=CC[C@@H]3[C@@]4(C)C[C@@H](OC(C)=O)C(=O)[C@@](C)(C=O)[C@@H]4CC[C@@]3(C)[C@]1(C)CC2,Activity,[10],66.4%
C=C(C)[C@@H]1CC[C@]2(C(=O)O[C@@H]3O[C@H](CO)[C@@H](O)[C@H](O)[C@H]3O)CC[C@]3(C)[C@H](CC[C@@H]4[C@@]5(C)C[C@@H](O)[C@H](O)[C@](C)(CO)[C@@H]5CC[C@]43C)[C@@H]12,Activity,[11],40.9%
CC1(C)CC[C@]2(C(=O)O[C@@H]3O[C@H](CO)[C@@H](O)[C@H](O)[C@H]3O)CC[C@]3(C)C(=CC[C@@H]4[C@@]5(C)CC[C@H](O[C@@H]6O[C@H](CO)[C@@H](O)[C@H](O)[C@H]6O)C(C)(C(=O)O)[C@@H]5CC[C@]43C)[C@@H]2C1 (stereo partly drawn),Activity,[5],271 IU/L
same,Activity,[12],279 IU/L
CC(=O)C[C@@H](C)[C@H]1CC[C@@]2(C)[C@@H]3C(=O)C=C4[C@@H](CC[C@@H](O)C4(C)C)[C@]3(C)CC[C@]12C,Activity,[13],56.9%
COC(=O)[C@]12CC[C@@H](C)[C@H](C)[C@H]1C1=CC[C@@H]3[C@@]4(C)C[C@@H](OC)C(=O)[C@@](C)(C=O)[C@@H]4CC[C@@]3(C)[C@]1(C)CC2,Activity,[10],52.3%
CC1(C)C[C@H]2C3=CC[C@@H]4[C@@]5(C)CCC(=O)C(C)(C)C5CC[C@@]4(C)[C@]3(C)CC[C@@]2(C(=O)O)CC1=O (stereo partly drawn),Activity,[14],43%
CC1(C)C[C@H]2C3=C[C@@H](O)[C@@H]4[C@@]5(C)CCC(=O)C(C)(C)C5CC[C@@]4(C)[C@]3(C)CC[C@@]2(C(=O)O)CC1=O (stereo partly drawn),Activity,[14],24%
CC1=C2C3=CC[C@@H]4[C@@]5(C)C[C@@H](O)[C@H](O)[C@@](C)(CO)[C@@H]5[C@H](O)C[C@@]4(C)[C@]3(C)CC[C@@]2(C(=O)O[C@@H]2O[C@H](CO)[C@@H](O)[C@H](O)[C@H]2O)CC[C@H]1C [QUADRANOSIDE V],Activity,[6],67.5%
same,IC50,[3],30.2 µM
C=C(C)[C@@H]1CC[C@]2(C(=O)O[C@@H]3O[C@H](CO)[C@@H](O)[C@H](O)[C@H]3O)CC[C@]3(C)[C@H](CC[C@@H]4[C@@]5(C)C[C@@H](O)[C@H](O)C(C)(C)[C@@H]5CC[C@]43C)[C@@H]12,Activity,[11],37.6%
C[C@@]1(CO)CC[C@]2(C(=O)O[C@@H]3O[C@H](CO[C@@H]4O[C@H](CO)[C@@H](O)[C@H](O)[C@H]4O)[C@@H](O)[C@H](O)[C@H]3O)CC[C@]3(C)C(=CC[C@@H]4[C@@]5(C)CC[C@H](O[C@@H]6O[C@H](CO)[C@@H](O)[C@H](O)[C@H]6O)[C@@](C)(C(=O)O)[C@@H]5CC[C@]43C)[C@@H]2C1,Activity,[5],215 IU/L
CC(=O)O[C@H]1[C@@H]2O[C@@]3(C(C)(C)O)CC[C@](C)(O3)C2[C@@]2(CO)CC[C@@]34C[C@@]35CC[C@H](O[C@@H]3OC[C@@H](O)[C@H](O)[C@H]3O)C(C)(C)C5CC[C@H]4[C@]12C (stereo partly drawn),EC50,[15],74.1 µM
CC(=O)O[C@H]1CC[C@]2(C)[C@H]3CC=C4[C@@H]5CC(C)(C)CC[C@]5(C(=O)O)CC[C@@]4(C)[C@]3(C)CC[C@H]2C1(C)C [ACETYL OLEANOLIC ACID],Activity,[16],17.5 IU/L
same,Activity,[17],27.8 IU/L
same,Activity,[18],16.1 IU/L
C[C@@H]1CC[C@]2(C(=O)O)CC[C@]3(C)C(=CC[C@@H]4[C@@]5(C)[C@H](O)[C@@H](O)[C@@H](O)C(C)(C)[C@@H]5CC[C@]43C)[C@@H]2[C@]1(C)O,Activity,[19],4.75 IU/L
same,Activity,[20],21.9 U/ml
same,Activity,[21],3.84 nmol/mL
same,Activity,[22],4.24 IU/L
CC(=O)O[C@H]1[C@@H]2O[C@@]3(C(C)(C)O)CC[C@](C)(O3)C2[C@@]2(CO)CC[C@@]34C[C@@]35CC[C@H](O)C(C)(C)C5CC[C@H]4[C@]12C (stereo partly drawn),EC50,[15],55.9 µM
CC1(C)CC[C@]2(C(=O)O[C@@H]3O[C@H](CO)[C@@H](O)[C@H](O)[C@H]3O)CC[C@]3(C)C(=CC[C@@H]4[C@@]5(C)C[C@@H](O)[C@@H](O)[C@](C)(CO)[C@@H]5CC[C@]43C)[C@@H]2[C@@H]1O,Activity,[7],61%
same,Activity,[8],61%
CC1(C)CC[C@]2(C(=O)O[C@@H]3O[C@H](CO)[C@@H](O)[C@H](O)[C@H]3O[C@@H]3OC[C@@H](O)[C@H](O)[C@H]3O)CC[C@]3(C)C(=CC[C@@H]4[C@@]5(C)C[C@@H](O)[C@@H](O)[C@@](C)(CO)[C@@H]5CC[C@]43C)[C@@H]2[C@@H]1O,Activity,[7],64%
same,Activity,[8],64%
CC1=CC[C@H]([C@@H](C)[C@H]2CC[C@@]3(C)[C@@H]4CC[C@@H](C(C)(C)O)[C@@]5(CCC(=O)O)C[C@@]45CC[C@@]23C)OC1=O,Activity,[9],35.7%
CC(C)[C@]1(CO[C@@H]2O[C@H](CO)[C@@H](O)[C@H](O)[C@H]2O)CC[C@@H]([C@H]2[C@H](O)C[C@]3(C)[C@@H]2CC[C@@H]2[C@@]4(C)CC[C@H](O[C@@H]5O[C@H](CO)[C@@H](O)[C@H](O)[C@H]5O[C@@H]5O[C@H](CO)[C@@H](O)[C@H](O)[C@H]5O)C(C)(C)[C@@H]4CC[C@]23C)O1,Activity,[23],28.2%
same,Activity,[24],14.7%
CO[C@@H]1C=C2[C@@H]3CC(C)(C)C(=O)C[C@]3(C(=O)O)CC[C@@]2(C)[C@]2(C)CCC3C(C)(C)C(=O)CC[C@]3(C)[C@@H]12 (stereo partly drawn),Activity,[14],48%
CC1(C)CC[C@]2(CO)CC[C@]3(C)C(=CC[C@@H]4[C@@]5(C)CC[C@H](O)C(C)(C)[C@@H]5CC[C@]43C)[C@@H]2C1 [ERYTHRODIOL],Activity,[25],40.2 U/ml
